Data reported in patent US8058243B2, “Method for treating a brain cancer with ifenprodil” (HSC Research and Development Limited Partnership, priority 2006, dated 2011).
Structures can show the parent of a compound that is named as a salt. Where two headings read alike, the source gives them in different places.

System: murine neural precursor cells (neurosphere cultures)
Test: HTS of LOPAC library against secondary neurosphere cultures, MTT proliferation assay at 3 μM, day 7 (z score, P value)
Type: cell-based, mouse
[1] = LOPAC library screen, 3 μM, MTT, secondary neurosphere cultures, day 7
[2] = primary LOPAC screen, 3 μM, MTT, neurosphere proliferation
[3] = yes/no: significantly inhibited neurosphere proliferation in the primary screen
[4] = LOPAC library screen at 3 μM, secondary neurosphere cultures, MTT
[5] = LOPAC screen, neurosphere MTT proliferation, 3 μM, day 7
[6] = yes/no: significantly inhibited neurosphere proliferation (P<0.01) in primary screen
[7] = LOPAC library screen, 3 μM, MTT, neurosphere cultures
[8] = LOPAC primary screen, neurosphere MTT proliferation, 3 μM, day 7
[9] = yes = significantly inhibited neurosphere proliferation (P<0.01) in the primary screen
[10] = yes/no: significantly inhibited neurosphere proliferation (P<0.01) in the primary screen
[11] = yes/no: significantly inhibited neurosphere proliferation in primary screen

In the case of `NC[C@H](O)c1ccc(O)c(O)c1.O=C(O)C(O)C(O)C(=O)O` [(B1)-Norepinephrine (+)bitartrate], the “Z Score” value is reported as 0.09903.

`O=C(CCCN1CCC(O)(c2cccc(C(F)(F)F)c2)CC1)c1ccc(F)cc1` [Trifluperidol hydrochloride] was tested, and the “Z Score” value [1] was −1.621, the Z score [2] was −1.621 and the Activity [3] was “no”.

`COc1ccccc1N1CCN(CCN2C(=O)CC3(CCCC3)CC2=O)CC1` [BMY 7378 dihydrochloride] was tested, and the “Z Score” value [4] was −0.6588, the Z score [5] was −0.659 and the Activity [6] was “no”.

For `COC(=O)c1c(-c2cc(OC)c(OC)c(OC)c2)c2ccnc(OCc3ncccn3)c2c(=O)n1Cc1ccnc(C)c1` [T-0156], the “Z Score” value was 0.07709, the Z score [2] was 0.077 and the Activity [3] was “no”.

In the case of `Cl.O=c1[nH]oc2c1CCNC2` [THIP hydrochloride], the “Z Score” value is reported as 0.3613, the Z score [2] is reported as 0.361 and the Activity [3] is reported as “no”.

In the case of `CCC1(c2ccc(N)cc2)CCC(=O)NC1=O` (racemic) [(±)-p-Aminoglutethimide], the Activity is reported as “no” and the Z score [2] is reported as −0.444.

In the case of `COc1cc2nc(N3CCN(C(=O)C4CCCO4)CC3)nc(N)c2cc1OC` (stereo not drawn) [Terazosin hydrochloride], the Activity is reported as “no”, the “Z Score” value [7] is reported as −0.05722 and the Z score [2] is reported as −0.057.

With `CC(C)NC[C@@H](O)c1ccc(O)c(O)c1.O=C(O)C(O)C(O)C(=O)O` [S(+)-Isoproterenol(+)-bitartrate] the Z score [8] was −0.296 and the Activity [6] was “no”.

For `O=c1c(O)c(-c2ccc(O)cc2O)oc2cc(O)cc(O)c12` [Morin], the “Z Score” value (168 h, 3 µM) was −2.216, the Z score (168 h, 3 µM) was −2.216 and the Activity [9] was “no”.

`N#C/C(=C\c1ccc(O)c(O)c1)C(=O)NCCCc1ccccc1` [Tyrphostin AG 555] was tested, and the “Z Score” value [4] was −0.6812, the Z score [2] was −0.681 and the Activity [3] was “no”.

`C1CNCCN1.COc1cc(C(O)CO)ccc1O.COc1cc(C(O)CO)ccc1O` (racemic) [MHPG piperazine] was tested, and the “Z Score” value [7] was 0.05276, the Z score [8] was 0.053 and the Activity [6] was “no”.

With `CN1CCN(CCCN2c3ccccc3Sc3ccc(Cl)cc32)CC1` [Prochlorperazine dimaleate] the “Z Score” value (168 h, 3 µM) was −0.8602, the Z score (168 h, 3 µM) was −0.860 and the Activity [10] was “no”.

`CN[C@H](CC(=O)O)C(=O)O` [N-Methyl-D-aspartic acid] was tested, and the “Z Score” value was −1.86, the Z score [8] was −1.860 and the Activity [9] was “no”.

(+)-Nicotine (+)-di-p-toluoyl tartrate was tested, and the Activity was “no”, the “Z Score” value was −2.233 and the Z score was −2.233.

`CC(C)NCC(O)c1ccc(NS(C)(=O)=O)cc1.Cl` (stereo not drawn) [(B1)-Sotalol hydrochloride] was tested, and the “Z Score” value was −0.813.

With `Oc1ccc(C=Cc2cc(O)cc(O)c2)cc1` [Resveratrol] the “Z Score” value [4] was −0.2295, the Z score [8] was −0.230 and the Activity [11] was “no”.

With `CC1CN(S(=O)(=O)c2cccc3cnccc23)CCN1.Cl.Cl` [L-701,324] the “Z Score” value was 0.4513 and the Z score [8] was 0.451.

With `CN(C(=O)Cc1ccc(Cl)c(Cl)c1)C(CN1CCCC1)c1cccc(OCC(=O)O)c1.Cl` (stereo not drawn) [ICI 204,448 hydrochloride] the “Z Score” value was −0.3636, the Z score [8] was −0.364 and the Activity [6] was “no”.

For `OC[C@H]1O[C@@H](n2cnc3c(Nc4ccccc4)ncnc32)[C@H](O)[C@@H]1O` [N6-Phenyladenosine], the “Z Score” value was 0.7283, the Z score was 0.728 and the Activity [11] was “no”.

For `NC1(C(=O)O)CCC(C(=O)O)C1` (stereo not drawn) [trans-(B1)-ACPD], the “Z Score” value was 0.3149.

In the case of `Cl.NCC#Cc1ccccc1` [3-Phenylpropargylamine hydrochloride], the “Z Score” value is reported as −2.043, the Z score [8] is reported as −2.043 and the Activity [11] is reported as “no”.

In the case of `Nn1nnc2ccccc21` [1-Aminobenzotriazole], the “Z Score” value (168 h, 3 µM) is reported as 0.5236, the Z score (168 h, 3 µM) is reported as 0.524 and the Activity [3] is reported as “no”.

`O=C(CCCN1CCC2(CC1)C(=O)NCN2c1ccccc1)c1ccc(F)cc1` [Spiperone hydrochloride] was tested, and the “Z Score” value [4] was −0.5168, the Z score [8] was −0.517 and the Activity [11] was “no”.

With `O=C(O)c1cc(O)cc(C(=O)O)n1` [Chelidamic acid] the “Z Score” value (168 h, 3 µM) was 0.7261, the Z score (168 h, 3 µM) was 0.726 and the Activity [6] was “no”.

For `CC(=O)OCC1=C(C(=O)[O-])N2C(=O)[C@@H](NC(=O)CCC[C@@H](N)C(=O)[O-])[C@H]2SC1.[Zn+2]` [Cephalosporin C zinc salt], the “Z Score” value was −3.309, the Z score [8] was −3.309 and the Activity [10] was “yes”.

For `CCCNCC(O)COc1ccccc1C(=O)CCc1ccccc1` (stereo not drawn) [Propafenone hydrochloride], the “Z Score” value [4] was −0.9673, the Z score [8] was −0.967 and the Activity [9] was “no”.

With Quipazine dimaleate the “Z Score” value was −1.444, the Z score [8] was −1.444 and the Activity [11] was “no”.

With `NC(CCP(=O)(O)O)C(=O)O` (stereo not drawn) [(B1)-2-Amino-4-phosphonobutyric acid] the “Z Score” value was 1.893.

In the case of `C#CC(N)CCC(=O)O` (stereo not drawn) [gamma-Acetylinic GABA], the “Z Score” value is reported as 1.285, the Z score [2] is reported as 1.285 and the Activity [3] is reported as “no”.

In the case of `O=C1CCC(c2ccc(-n3ccnc3)cc2)=NN1` [Imazodan], the “Z Score” value (168 h, 3 µM) is reported as 0.4616, the Z score (168 h, 3 µM) is reported as 0.462 and the Activity [6] is reported as “no”.

With `O=C(O)C1=CC(=C(c2ccc(O)c(C(=O)O)c2)c2ccc(O)c(C(=O)O)c2)C=CC1=O` [Aurintricarboxylic acid] the “Z Score” value (168 h, 3 µM) was 0.5709 and the Z score (168 h, 3 µM) was 0.571.

In the case of `Cc1cnc(C(=O)NCCc2ccc(S(=O)(=O)NC(=O)NC3CCCCC3)cc2)cn1` [Glipizide], the Activity is reported as “no”, the “Z Score” value [4] is reported as −0.8295 and the Z score [8] is reported as −0.830.

With S-(−)-Carbidopa the “Z Score” value [1] was −2.314, the Z score [5] was −2.314 and the Activity [6] was “no”.

In the case of `Clc1ccc(C(c2ccccc2Cl)C(Cl)Cl)cc1` (stereo not drawn) [1-(2-Chlorophenyl)-1-(4-chlorophenyl)-2,2-dichloroethane], the “Z Score” value [1] is reported as −2.508, the Z score [8] is reported as −2.508 and the Activity [9] is reported as “yes”.

For `O=[N+]([O-])c1ccc(O[C@@H]2O[C@H](CO)[C@@H](O)[C@H](O)[C@H]2F)c([N+](=O)[O-])c1` [2,4-Dinitrophenyl 2-fluoro-2-deoxy-beta-D-glucopyranoside], the “Z Score” value [7] was 0.772, the Z score [5] was 0.772 and the Activity [6] was “no”.

`C#CCn1c(=O)c2c(ncn2C)n(C)c1=O` [3,7-Dimethyl-I-propargylxanthine] was tested, and the “Z Score” value was 1.454, the Z score [5] was 1.454 and the Activity [6] was “no”.

In the case of `Cc1cnc(NC(=O)C2=C(O)c3ccccc3S(=O)(=O)N2C)s1` [Meloxicam sodium], the Activity [9] is reported as “no”.

`C[C@H](CS)C(=O)N1CCC[C@H]1C(=O)O` [Captopril] was tested, and the “Z Score” value [1] was −1.285, the Z score [5] was −1.285 and the Activity [6] was “no”.

`CNCC[C@H](Oc1ccc(C(F)(F)F)cc1)c1ccccc1.Cl` [S-(+)-Fluoxetine hydrochloride] was tested, and the “Z Score” value [4] was −0.8088, the Z score [8] was −0.809 and the Activity [6] was “no”.

In the case of `COc1ccc2c(c1OC)C(=O)O[C@@H]2[C@H]1c2c(cc3c(c2OC)OCO3)CCN1C.Cl` [Noscapine hydrchloride], the “Z Score” value [1] is reported as −2.455, the Z score [8] is reported as −2.455 and the Activity [10] is reported as “yes”.

For `COCc1nc2c([nH]1)c(=O)n(C)c(=O)n2CC(C)C` [8-Methoxymethyl-3-isobutyl-1-methylxanthine], the “Z Score” value [4] was −0.3403, the Z score [8] was −0.340 and the Activity [9] was “no”.

In the case of `Br.CCCN(CCC)C1CCc2ccc(O)cc2C1` (racemic) [(±)-7-Hydroxy-DPAT hydrobromide], the Z score [8] is reported as −11.102 and the Activity [10] is reported as “yes”.

For `CCN(CC)CC(=O)Nc1c(C)cccc1C` [Lidocaine hydrochloride], the “Z Score” value [4] was −0.1111, the Z score [8] was −0.111 and the Activity [6] was “no”.

For `Cl.O=C(OC1CCN(CCCl)CC1)C(c1ccccc1)c1ccccc1` [4-Diphenylacetoxy-N-(2-chloroethyl)piperidine hydrochloride], the “Z Score” value was 0.8645, the Z score [8] was 0.864 and the Activity [6] was “no”.

For `NNc1nncc2ccccc12` [Hydralazine hydrochloride], the “Z Score” value [7] was 0.2592, the Z score [8] was 0.259 and the Activity [6] was “no”.

With `COc1ccc(CNC(=O)/C=C/c2ccc3[nH]cc(CCN(C)C)c3c2)cc1` [GR 4661] the “Z Score” value was 0.1015, the Z score [8] was 0.102 and the Activity [9] was “no”.

For `COC(=O)C1=C(C)NC(C)=C([N+](=O)[O-])C1c1ccccc1C(F)(F)F` (stereo not drawn) [(B1)-Bay K 8644], the “Z Score” value was 0.8527.

For `O=c1cc(-c2ccc(O)c(O)c2)oc2cc(O)cc(O)c12` [Luteolin], the “Z Score” value [1] was −1.323, the Z score [8] was −1.323 and the Activity [6] was “no”.

In the case of `COc1cc(CC(=O)O)ccc1O` [4-Hydroxy-3-methoxyphenylacetic acid], the “Z Score” value is reported as −0.5673, the Z score [8] is reported as −0.567 and the Activity [6] is reported as “no”.

For `COc1cccc(C(=O)NCCN2CCN(c3ccc(Cl)cc3)CC2)c1` [N-(2-[4-(4-Chlorophenyl)piperazin-1-yl]ethyl)-3-methoxybenzamide], the “Z Score” value [7] was 0.3828, the Z score [8] was 0.383 and the Activity [10] was “no”.

In the case of `NC[C@@H]1O[C@H](O[C@H]2[C@@H](O)[C@H](O[C@@H]3[C@@H](O)[C@H](N)C[C@H](N)[C@H]3O[C@H]3O[C@H](CO)[C@@H](O)[C@H](O)[C@H]3N)O[C@@H]2CO)[C@H](N)[C@@H](O)[C@@H]1O.O=S(=O)(O)O` [Paramomycin sulfate], the Z score [8] is reported as 0.821 and the Activity [11] is reported as “no”.

With `Oc1ncnc2[nH]ncc12` [Allopurinol] the “Z Score” value [7] was 0.1473, the Z score [2] was 0.147 and the Activity [3] was “no”.

`Nc1ncnc2c1ncn2C1CCCC1` [9-cyclopentyladenine] was tested, and the “Z Score” value (168 h, 3 µM) was 0.4988, the Z score (168 h, 3 µM) was 0.499 and the Activity [6] was “no”.

In the case of `CN1CCc2cc(Cl)c(O)cc2[C@@H](c2ccccc2)C1.Cl` [R(+)-SCH-23390 hydrochloride], the “Z Score” value [7] is reported as 1.375, the Z score [5] is reported as 1.375 and the Activity [6] is reported as “no”.
